Test results as given in patent US20080124384A1, “Heteroaryl Substituted Piperazinyl-Pyridine Analogues” (priority 2005, published 2008).

Legend:
human capsaicin receptor [1] = molecular target: T1, human capsaicin receptor (Homo sapiens, UniProt Q8NER1); test: Calcium mobilization assay, determination of antagonist activity (Example 6); assay type: cell-based; details: cells expressing human capsaicin receptor; capsaicin at its EC50; read-out: IC50 determined as described in Example 6
T1 construct: expressed in transfected cells; host or cells: HEK293 cells stably transfected with pBK-CMV construct
T1 sequence (Q8NER1 whole entry): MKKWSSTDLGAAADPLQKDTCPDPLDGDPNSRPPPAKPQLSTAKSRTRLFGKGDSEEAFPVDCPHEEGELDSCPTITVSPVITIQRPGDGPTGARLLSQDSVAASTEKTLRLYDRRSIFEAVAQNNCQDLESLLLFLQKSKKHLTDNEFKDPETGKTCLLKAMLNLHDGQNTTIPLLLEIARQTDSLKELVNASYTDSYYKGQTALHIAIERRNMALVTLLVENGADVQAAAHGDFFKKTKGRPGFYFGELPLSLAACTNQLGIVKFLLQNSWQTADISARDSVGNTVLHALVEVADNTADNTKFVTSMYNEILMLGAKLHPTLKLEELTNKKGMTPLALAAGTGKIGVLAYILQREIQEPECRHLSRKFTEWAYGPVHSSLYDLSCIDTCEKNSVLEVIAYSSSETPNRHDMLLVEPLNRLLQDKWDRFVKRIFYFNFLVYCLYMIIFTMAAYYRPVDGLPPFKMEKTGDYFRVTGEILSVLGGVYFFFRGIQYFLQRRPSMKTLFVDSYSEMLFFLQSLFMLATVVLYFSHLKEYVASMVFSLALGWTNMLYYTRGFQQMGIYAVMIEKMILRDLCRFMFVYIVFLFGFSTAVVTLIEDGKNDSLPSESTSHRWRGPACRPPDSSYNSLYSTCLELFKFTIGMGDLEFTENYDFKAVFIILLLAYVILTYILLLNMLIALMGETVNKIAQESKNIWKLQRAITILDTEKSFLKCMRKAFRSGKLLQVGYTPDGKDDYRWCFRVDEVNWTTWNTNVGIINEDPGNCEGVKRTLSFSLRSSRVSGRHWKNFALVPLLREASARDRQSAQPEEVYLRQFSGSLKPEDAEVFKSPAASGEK
Excerpt: A cDNA encoding full length human capsaicin receptor (SEQ ID NO:1, 2 or 3 of U.S. Pat. No. 6,482,611) is subcloned in the plasmid pBK-CMV (Stratagene, La Jolla, Calif.) for recombinant expression in mammalian cells.
Human embryonic kidney (HEK293) cells are transfected with the pBK-CMV expression construct encoding the full length human capsaicin receptor using standard methods. […] Independent clones are isolated from this pool by limiting dilution to obtain clonal stable cell lines for use in subsequent experiments.
This Example illustrates representative calcium mobilization assays for use in evaluating test compounds for agonist and antagonist activity.
(§1) Cells transfected with expression plasmids (as described in Example 4) and thereby expressing human capsaicin receptor are seeded and grown to 70-90% confluency in FALCON black-walled, clear-bottomed 96-well plates (#3904, BECTON-DICKINSON, Franklin Lakes, N.J.). The culture medium is emptied from the 96 well plates and FLUO-3 AM calcium sensitive dye (Molecular Probes, Eugene, Oreg.) is added to each well (dye solution: 1 mg FLUO-3 AM, 440 μL DMSO and 440 μl 20% pluronic acid in DMSO, diluted 1:250 in Krebs-Ringer HEPES (KRH) buffer (25 mM HEPES, 5 mM KCl, 0.96 mM NaH2PO4, 1 mM MgSO4, 2 mM CaCl2, 5 mM glucose, 1 mM probenecid, pH 7.4), 50 μl diluted solution per well). Plates are covered with aluminum foil and incubated at 37° C. for 1-2 hours in an environment containing 5% CO2. After the incubation, the dye is emptied from the plates, and the cells are washed once with KRH buffer, and resuspended in KRH buffer.
To measure the ability of a test compound to agonize or antagonize a calcium mobilization response in cells expressing capsaicin receptors to capsaicin or other vanilloid agonist, the EC50 of the agonist capsaicin is first determined. An additional 20 μl of KRH buffer and 1 μl DMSO is added to each well of cells, prepared as described above. 100 μl capsaicin in KRH buffer is automatically transferred by the FLIPR instrument to each well. […] Data obtained between 30 and 60 seconds after agonist application are used to generate an 8-point concentration response curve, with final capsaicin concentrations of 1 nM to 3 μM.
Test compounds are dissolved in DMSO, diluted in 20 μl KRH buffer so that the final concentration of test compounds in the assay well is between 1 μM and 5 μM, and added to cells prepared as described above. The 96 well plates containing prepared cells and test compounds are incubated in the dark, at room temperature for 0.5 to 6 hours. It is important that the incubation not continue beyond 6 hours. Just prior to determining the fluorescence response, 100 μl capsaicin in KRH buffer at twice the EC50 concentration determined as described above is automatically added by the FLIPR instrument to each well of the 96 well plate for a final sample volume of 200 μl and a final capsaicin concentration equal to the EC50. The final concentration of test compounds in the assay wells is between 1 μM and 5 μM.

VR = details: typically; no more than moderate affinity; read-out: Ki value (binds to VR); cited from earlier work
human capsaicin receptor [2] = molecular target: T1, human capsaicin receptor; test: Calcium mobilization assay, agonist response (Example 6); assay type: cell-based; details: positive control in the agonist assay; read-out: approximate EC90 concentration
Protocol: as §1
To measure the ability of a test compound to agonize or antagonize a calcium mobilization response in cells expressing capsaicin receptors to capsaicin or other vanilloid agonist, the EC50 of the agonist capsaicin is first determined. An additional 20 μl of KRH buffer and 1 μl DMSO is added to each well of cells, prepared as described above. 100 μl capsaicin in KRH buffer is automatically transferred by the FLIPR instrument to each well. […]

Row | Compound | IC50 (human capsaicin receptor [1]) | other results
1 | CC1CCCN1c1nc(-c2ccc(F)c(Cl)c2)cc(N2CCN(c3nsnc3Cl)CC2)n1 (stereo not shown) [Compound 4] | < 1000 nM | –
2 | Cl.Cl.Cl.Cl.Cl.Cl.N.N.N.N.N.N.N.N.N.N.N.N.N.N.[O-2].[O-2].[Ru+3].[Ru+3].[Ru+4] [ruthenium red] | – | Ki (VR): ≥ 140000 nM
3 | COc1cc(CNC(=O)CCCC/C=C/C(C)C)ccc1O [capsaicin] | – | EC90 (human capsaicin receptor [2]): ~100 nM
4 | CC1CCCN1c1nc(-c2ccc(F)cc2)cc(N2CCC(c3nnn[nH]3)CC2)n1 (stereo not shown) [Compound 1, 4-(4-Fluoro-phenyl)-2-(2-methyl-pyrrolidin-1-yl)-6-[4-(1H-tetrazol-5-yl)-piperidin-1-yl]pyrimidine] | < 1000 nM | –
5 | CC1CCCN1c1nc(-c2ccc(F)cc2)cc(N2CCN(c3nccn3C)CC2)n1 (stereo not shown) [Compound 2, 4-(4-Fluoro-phenyl)-6-[4-(1-methyl-1H-imidazol-2-yl)-piperazin-1-yl]-2-(2-methyl-pyrrolidin-1-yl)-pyrimidine] | < 1000 nM | –

Now from value to compound, other results behind:

Row | IC50 (human capsaicin receptor [1]) | Compound | other results
6 | < 1000 nM | C[C@@H]1CCCN1c1nc(-c2ccc(F)c(Cl)c2)cc(N2CCN(c3nccn3C)CC2)n1 [Compound 5, 4-(3-Chloro-4-fluoro-phenyl)-6-[4-(1-methyl-1H-imidazol-2-yl)-piperazin-1-yl]-2-((R)-2-methyl-pyrrolidin-1-yl)-pyrimidine] | –
7 | < 1000 nM | CC1CCCN1c1nc(-c2ccc(F)cc2)cc(N2CCC(c3nccn3C)CC2)n1 (stereo not shown) [Compound 3] | –
